Data published in patent US20250154109A1, “SODIUM CHANNEL BLOCKING COMPOUNDS, DERIVATIVES THEREOF, AND METHODS OF THEIR USE” (LATIGO BIOTHERAPEUTICS, INC, priority 2022, published 2025).
Where two headings read alike, the source gives them in different places.

Target: human Nav1.8 (Homo sapiens, UniProt Q9Y5Y9)
Assay: SyncroPatch384PE assay (automated patch clamp)
Format: cell-based
Settings: human Nav1.8/b3 CHO cells
[1] = inactivated state block (P2 measurement), read-out: P2 IC50
[2] = resting state block (P1 measurement), read-out: P1 IC50

Chain of human Nav1.8 (Q9Y5Y9 whole entry): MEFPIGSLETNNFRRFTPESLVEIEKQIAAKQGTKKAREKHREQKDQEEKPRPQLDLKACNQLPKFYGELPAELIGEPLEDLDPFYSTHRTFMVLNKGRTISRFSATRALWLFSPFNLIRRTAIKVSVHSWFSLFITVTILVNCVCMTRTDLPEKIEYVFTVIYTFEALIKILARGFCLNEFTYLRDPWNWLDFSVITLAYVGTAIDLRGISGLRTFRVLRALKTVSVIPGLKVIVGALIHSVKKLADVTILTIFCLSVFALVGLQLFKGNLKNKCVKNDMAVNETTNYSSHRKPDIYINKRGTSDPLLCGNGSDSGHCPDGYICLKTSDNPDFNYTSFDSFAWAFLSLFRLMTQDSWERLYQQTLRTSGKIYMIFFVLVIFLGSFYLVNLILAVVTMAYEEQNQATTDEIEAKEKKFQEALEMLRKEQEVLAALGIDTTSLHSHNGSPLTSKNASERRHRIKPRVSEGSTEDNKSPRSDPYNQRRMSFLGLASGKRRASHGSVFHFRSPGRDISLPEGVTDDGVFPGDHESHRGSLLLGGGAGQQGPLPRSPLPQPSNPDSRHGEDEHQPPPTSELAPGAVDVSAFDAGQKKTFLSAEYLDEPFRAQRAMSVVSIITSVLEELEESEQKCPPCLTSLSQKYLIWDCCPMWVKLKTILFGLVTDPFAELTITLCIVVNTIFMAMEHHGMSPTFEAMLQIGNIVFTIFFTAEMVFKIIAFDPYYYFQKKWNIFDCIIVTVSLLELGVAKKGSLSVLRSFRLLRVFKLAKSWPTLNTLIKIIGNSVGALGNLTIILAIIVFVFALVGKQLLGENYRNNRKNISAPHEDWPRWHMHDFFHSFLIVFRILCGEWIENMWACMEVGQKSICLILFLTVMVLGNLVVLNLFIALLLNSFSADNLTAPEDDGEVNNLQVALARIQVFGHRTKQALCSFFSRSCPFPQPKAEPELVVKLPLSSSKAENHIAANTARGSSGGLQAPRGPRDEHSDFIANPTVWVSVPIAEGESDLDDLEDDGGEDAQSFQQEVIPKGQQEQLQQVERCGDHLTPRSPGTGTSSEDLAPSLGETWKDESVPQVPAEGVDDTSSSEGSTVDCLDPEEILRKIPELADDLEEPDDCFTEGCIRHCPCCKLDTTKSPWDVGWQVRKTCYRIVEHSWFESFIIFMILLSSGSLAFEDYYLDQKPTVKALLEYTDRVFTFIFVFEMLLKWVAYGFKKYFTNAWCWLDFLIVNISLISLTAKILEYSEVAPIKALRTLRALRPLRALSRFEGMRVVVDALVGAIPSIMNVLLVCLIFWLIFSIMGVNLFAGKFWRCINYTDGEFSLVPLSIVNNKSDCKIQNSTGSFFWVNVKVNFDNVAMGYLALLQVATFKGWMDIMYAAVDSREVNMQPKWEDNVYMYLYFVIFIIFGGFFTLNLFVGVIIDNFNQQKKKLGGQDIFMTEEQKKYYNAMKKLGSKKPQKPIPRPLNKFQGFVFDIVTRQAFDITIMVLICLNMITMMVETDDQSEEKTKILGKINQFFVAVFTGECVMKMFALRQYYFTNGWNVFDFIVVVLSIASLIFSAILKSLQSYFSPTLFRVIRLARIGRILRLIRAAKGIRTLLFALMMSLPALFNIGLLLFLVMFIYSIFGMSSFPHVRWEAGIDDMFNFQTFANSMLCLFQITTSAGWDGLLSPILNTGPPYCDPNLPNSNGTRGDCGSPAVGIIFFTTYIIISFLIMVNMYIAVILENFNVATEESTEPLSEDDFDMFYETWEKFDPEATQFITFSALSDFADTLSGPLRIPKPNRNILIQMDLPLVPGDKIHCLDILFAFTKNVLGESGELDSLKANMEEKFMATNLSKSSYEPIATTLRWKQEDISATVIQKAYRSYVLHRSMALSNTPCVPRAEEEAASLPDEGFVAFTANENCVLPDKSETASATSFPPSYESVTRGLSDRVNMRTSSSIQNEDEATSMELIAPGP

IC50 [1] [nM] | IC50 [2] [nM] | Compound
≤ 5 | ≤ 5 | Cc1c(-c2ccc(C#N)cc2)cnc(N2CCCC(F)(F)CC2)c1C(=O)Nc1cccc([S@@](C)(=O)=NC(=O)C(C)(C)N)c1 [Example 55, (R)-N-(3-(N-(2-amino-2-methylpropanoyl)-S-methylsulfonimidoyl)phenyl)-5-(4-cyanophenyl)-2-(4,4-difluoroazepan-1-yl)-4-methylnicotinamide]
100 to 200 | 100 to 200 | Cc1c(C(F)(F)F)nnc(N2CCCCCC2)c1C(=O)Nc1cccc(S(C)(=N)=O)c1 (stereo not shown) [Example 7, 3-(azepan-1-yl)-5-methyl-N-(3-(S-methylsulfonimidoyl)phenyl)-6-(trifluoromethyl)pyridazine-4-carboxamide]
≤ 5 | ≤ 5 | Cc1nc(N2CCCC(F)(F)CC2)c(C(=O)Nc2cccc([S@@](C)(=N)=O)c2)cc1C(F)(F)F [Example 5, (S)-2-(4,4-Difluoroazepan-1-yl)-6-methyl-N-(3-(S-methylsulfonimidoyl)phenyl)-5-(trifluoromethyl)nicotinamide]
≤ 5 | ≤ 5 | Cc1c(Br)c(C(F)(F)F)nc(N2CCCC(F)(F)CC2)c1C(=O)Nc1cccc([S@](C)(=N)=O)c1 [Example 130, (R)-5-bromo-2-(4,4-difluoroazepan-1-yl)-4-methyl-N-(3-(S-methylsulfonimidoyl)phenyl)-6-(trifluoromethyl)nicotinamide]
> 200 | > 200 | CS(=N)(=O)c1cccc(NC(=O)c2nnc(C(F)(F)F)cc2N2CCCCCC2)c1 (stereo not shown) [Example 9, 4-(azepan-1-yl)-N-(3-(S-methylsulfonimidoyl)phenyl)-6-(trifluoromethyl)pyridazine-3-carboxamide]
50 to 100 | 50 to 100 | Cc1nc(N2CC(F)(F)C2)nc(N2CCCC(F)(F)CC2)c1C(=O)Nc1cccc([S@](C)(=N)=O)c1 [Example 158, (R)-4-(4,4-difluoroazepan-1-yl)-2-(3,3-difluoroazetidin-1-yl)-6-methyl-N-(3-(S-methylsulfonimidoyl)phenyl)pyrimidine-5-carboxamide]
5 to 50 | 5 to 50 | Cc1c(-c2cnn(C)c2)cnc(N2CCCC(F)(F)CC2)c1C(=O)Nc1cccc([S@@](C)(=O)=NC(=O)CN)c1 [Example 74, (R)-2-(4,4-difluoroazepan-1-yl)-N-(3-(N-glycyl-S-methylsulfonimidoyl)phenyl)-4-methyl-5-(1-methyl-1H-pyrazol-4-yl)nicotinamide]
≤ 5 | ≤ 5 | Cc1c(Br)cnc(N2CCCC(F)(F)CC2)c1C(=O)Nc1cccc([S@@](C)(=O)=NCCN)c1 [Example 209, (R)-N-(3-(N-(2-aminoethyl)-S-methylsulfonimidoyl)phenyl)-5-bromo-2-(4,4-difluoroazepan-1-yl)-4-methylnicotinamide 2,2,2-trifluoroacetate]
5 to 50 | 5 to 50 | C[S@@](=N)(=O)c1cc(NC(=O)c2cc(Cl)c(C(F)(F)F)cc2N2CCO[C@H](C(F)(F)F)C2)ccn1 [Example 218, 5-chloro-N-(2-((R)—S-methylsulfonimidoyl)pyridin-4-yl)-4-(trifluoromethyl)-2-((S)-2-(trifluoromethyl)morpholino)benzamide]
≤ 5 | ≤ 5 | Cc1c(-c2ccc(Cl)cc2)cnc(N2CCCC(F)(F)CC2)c1C(=O)Nc1cccc([S@](C)(=N)=O)c1 [Example 67, (R)-5-(4-chlorophenyl)-2-(4,4-difluoroazepan-1-yl)-4-methyl-N-(3-(S-methylsulfonimidoyl)phenyl)nicotinamide]
≤ 5 | ≤ 5 | Cc1nc(N2CCCC(F)(F)CC2)c(C(=O)Nc2cccc(S(C)(=N)=O)c2)cc1Cl (stereo not shown) [Example 15, 5-chloro-2-(4,4-difluoroazepan-1-yl)-6-methyl-N-(3-(S-methylsulfonimidoyl)phenyl)nicotinamide]
